Experimental findings from PubChem BioAssay (NCI) are described below.

Values joined by “and” are separate entries in the source; they are usually repeats but may differ in a detail not shown here. Identical values can stand only once.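 Five concentrations, 48 hours, 96-well plates. The concentration for 50% growth inhibition is given as GI50. At the TGI there is no net growth.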 Some results are limits rather than exact numbers.

Holding throughout (assay): NCI-60 cell line screen, 48 h
For assay [1], the system named is NCI-H522 lung.
Assay [2] concerns RXF 393 renal.
In assay [3] the test system is SK-MEL-5 melanoma.
Assay [4] concerns SNB-19 CNS.
The subject of assay [5] is MOLT-4 leukemia.
Assay [6] has as its system T-47D breast.
In assay [7] the test system is NCI-H460 lung.
The subject of assay [8] is ACHN renal.
For assay [9], the system named is HCT-15 colon.
The test system of assay [10] is SK-MEL-28 melanoma.

For the compound `Cc1c(N=Nc2ccc([N+](=O)[O-])cc2)nc2scc(-c3ccccc3)n12`, the TGI in assay [1], in [2], in [3], in assay [4], in assay [5] and in assay [6] was > 100 µM each time. The TGI in [7] is > 100 µM; in [8], > 100 µM; in assay [9], > 92.2 µM; in [10], > 100 µM.

On to `CC1=C([Se]CC(OC(=O)CC[Se]c2ccccc2)C(=O)NCCCCCC(=O)OCc2ccccc2)C(=O)c2ccccc2C1=O` (stereo not drawn), for which the GI50 in assay [1] was 2.28 µM; in assay [2], 1.91 µM; in [3], 1.54 µM; in assay [4] it was 2.72 µM; in assay [5], 3.61 µM; in assay [6], 2.2 µM. The GI50 was 1.78 µM in [7], 3.18 µM in assay [8], 3.85 µM in assay [9] and 2.98 µM in assay [10]. Moreover, the TGI stood at 6.16 µM in [1]; 5.64 µM in assay [2]; 3.06 µM in [3]; 11 µM in assay [4]; 31.2 µM in assay [5]; 8.21 µM in assay [6]. Also, the TGI in [7] was found to be 5.34 µM; in assay [8], 13.8 µM; in [9], 21.6 µM; in assay [10], 7.76 µM.

On to `O=C(/C=C/c1ccc(OCC(=O)N2CCN(c3ccccc3)CC2)cc1)c1ccc(Cl)cc1`, for which the TGI in assay [1] is > 100 µM; in assay [2], 55.1 µM; in assay [3] it was > 100 µM; in [4], 50.7 µM; in assay [5], > 100 µM; in assay [6], > 100 µM. The TGI is > 100 µM in [7], 69.7 µM in assay [8], > 100 µM in assay [9] and > 100 µM in assay [10].

As for `C/C(=N/S(=O)(=O)c1ccc(Cl)c(Cl)c1)OCC(C)(C)C`, the TGI in [1], in [2], in assay [3], in assay [4], in [5] and in assay [6] was > 100 µM throughout. The TGI in assay [7], in assay [8], in assay [9] and in assay [10] was > 100 µM in each case.

On to `CC12CCC3C(CC=C4CC(O)CCC43C)C1C/C(=C\N1CCCC1)C2=O` (stereo not drawn), for which the GI50 was > 100 µM in assay [1]; 41.8 µM in assay [2]; 64.5 µM in assay [3]; > 100 µM in assay [4]; > 100 µM in [5]; 30.2 µM in assay [6]. Further, the GI50 was > 100 µM in assay [7], 91.8 µM in assay [8], 87.1 µM in assay [9] and > 100 µM in [10]. The TGI in assay [1], in [2], in [3], in assay [4], in assay [5] and in assay [6] was > 100 µM each time. Besides, the TGI in [7], in [8], in assay [9] and in [10] was > 100 µM throughout.

On to `COc1c(O)c2c(c3cc(C(=O)N4CCc5c4c(O)c(OC)c4[nH]c(C(=O)N6CC7CC78C6=CC(=O)c6[nH]cc(C)c68)cc54)[nH]c13)CCN2C(N)=O` (stereo not drawn), for which the GI50 was 0.0168 mg/L in [1]; 0.0282 mg/L in assay [2]; 0.00642 mg/L in [5]; 0.157 µM in assay [9]; 0.354 µM in assay [10]. Moreover, the TGI in [1] is 48.3 nM and 0.0372 µg/mL; in assay [2] it was 447 nM and 0.0456 µg/mL; in [3], 27.9 nM and 400 nM and 0.00964 µg/mL; in [4], 76.8 nM and 3.69 µM and 0.185 µg/mL; in [5], 456 nM and 0.0737 µg/mL; in [6], 40 µM. Moreover, the TGI in assay [7] was 1.83 nM and 137 nM and 0.00377 µg/mL; in assay [8] it was 0.0142 µM.

For the compound `C[C@]12CCC3[C@@H](C[C@@H]4SC(Nc5ccccc5)=N[C@@]45CC(=O)CC[C@]35C)[C@@H]1CCC2=O` (stereo partly drawn), the GI50 in assay [1] was 6.6 µM; in assay [2], 3.18 µM; in assay [3], 10.2 µM; in assay [4] it was 12.9 µM; in [5], 2.84 µM; in [6], 3.5 µM. The GI50 in assay [7] is 4.65 µM; in assay [8] it was 7.81 µM; in [9], 2.53 µM; in [10], 20.5 µM. Moreover, the TGI is 23.6 µM in assay [1]; 14.2 µM in assay [2]; 26 µM in assay [3]; > 100 µM in [4]; > 100 µM in assay [5]; > 100 µM in assay [6]. The TGI in assay [7] is 27.9 µM; in assay [8], 29.5 µM; in assay [9] it was 9.71 µM; in assay [10] it was > 100 µM.

For the compound `OCc1cn(Cc2cccc(Cl)c2)c2ccccc12`, the GI50 is 5.95 µM in assay [1]; 2.43 µM in [2]; 11 µM in [3]; 22.5 µM in assay [4]; 10.6 µM in [5]; < 0.0208 µM in assay [6]. Besides, the GI50 in assay [7] is 0.0346 µM; in assay [8] it was 5.63 µM; in assay [9], 5.79 µM; in assay [10], 20.5 µM. In addition, the TGI in [1] was 22.7 µM; in assay [2] it was 18 µM; in assay [3], 23.7 µM; in assay [4], > 96.5 µM; in assay [5], 44.4 µM; in assay [6] it was 5.15 µM. Also, the TGI in [7] was determined as 17.9 µM; in assay [8] it was 69.2 µM; in [9], 43.8 µM; in assay [10], 60.9 µM.

Take `O=C(/C=C/c1cccnc1)NCCCCC1CCN(C(=O)c2ccccc2)CC1`: the GI50 in assay [1] was < 0.01 µM; in assay [2], > 100 µM; in [3], 35.3 µM and 21.8 µM; in assay [4], 0.615 µM and 4.43 µM; in assay [5], 31.1 µM and 21.7 µM; in assay [6] it was 1.93 µM. In addition, the GI50 is 0.274 µM and 0.0767 µM in [7]; > 100 µM in assay [8]; < 0.01 µM in assay [9]; > 100 µM in [10]. Besides, the TGI is > 100 µM in assay [1]; > 100 µM in assay [2]; > 100 µM in assay [3]; > 100 µM in assay [4]; > 100 µM in assay [5]; > 90.3 µM in [6]. For the same compound, the TGI in assay [7], in assay [8], in assay [9] and in assay [10] was > 100 µM in each case.

As for `CC(=O)OC[C@H]1O[C@@H](n2ccc(=O)[nH]c2=O)[C@H](OC(C)=O)[C@@H]1OC(C)=O`, the GI50 in assay [1], in assay [2], in assay [3], in assay [4], in assay [5] and in [6] was > 100 µM each time. Also, the GI50 in assay [7], in assay [8], in [9] and in assay [10] was > 100 µM throughout. The TGI in assay [1], in [2], in assay [3], in [4], in assay [5] and in assay [6] was > 100 µM each time. The TGI in assay [7], in [8], in assay [9] and in assay [10] was > 100 µM throughout.

In the case of `Cc1c(C#N)cccc1-c1cc(-c2cn(Cc3cccc(C(C)(C)O)n3)nn2)nc(N)n1`, the GI50 in assay [1] was 12.4 µM; in assay [2] it was 22.9 µM; in assay [3] it was 15 µM; in assay [4] it was 47.4 µM; in assay [5], 21.3 µM; in [6], 6.9 µM. Moreover, the GI50 is 44.9 µM in assay [7], 28.3 µM in assay [8], 23.2 µM in [9] and 39.1 µM in assay [10]. For the same compound, the TGI in assay [1] is > 100 µM; in assay [2] it was > 100 µM; in assay [3], 35.1 µM; in assay [4], > 100 µM; in assay [5], > 100 µM; in assay [6], 62.5 µM. The TGI in assay [7], in [8], in assay [9] and in assay [10] was > 100 µM in each case.

As to `CC(=O)Nc1ccc(/C=C/[N+](=O)[O-])cc1`, the TGI is 0.815 µM in [1]; 6.43 µM in assay [2]; 5.97 µM in assay [3]; 20.5 µM in assay [4]; 4.37 µM in assay [5]; > 27.9 µM in [6]. Besides, the TGI was 20.7 µM in assay [7], 9.44 µM in assay [8], > 19.6 µM in [9] and 4.13 µM in assay [10].
